Assay results published in patent US10538561B2, “Peptide for treating inflammatory diseases” (priority 2015, dated 2020).

Columns and labels:
[1] = In vitro combination Anthralin and IS 181 (MTT); type: cell-based, Human; conditions: human, HaCaT keratinocytes, read-out: percent inhibition of cell viability/cytotoxicity
Description: (§1) Percentage cytotoxicity was determined using MTT assay.

[2] = test system: Human Keratinocytes (HaCaT); experiment: In vitro combination Anthralin and IS 181 (MTT); type: cell-based; conditions: 72 h
Description: as §1

TNF-α = TNF-α level in TNF-α stimulated HaCaT; type: cell-based, Human; conditions: 24 h
Description: Effect on pro-inflammatory cytokines against TNF-α/LPS+PMA stimulation: TNF-α; IFN-γ; TARC; TSLP; IL-6; IL-8: Cell lines: Human keratinocytes (HaCaT); test item (TI); IS181; experimental steps: pre-treatment of cells with TI for 2 hours; stimulation with TNF-α: 20 ng/ml; stimulation with LPS+PMA-10 μg/ml LPS+40 ng/ml PMA; supernatant collection for cytokine analysis after 24 hours; concentration range: 0.1 μg/ml-100 μg/ml (duplicate wells); cytokines: TNF-α; IFN-γ; TARC; TSLP; IL-6; IL-8. Method of estimating cytokines: ELISA; positive control: dexamethasone.
Cell line: HaCaT (Human Keratinocytes); TI Treatment regimen: Pretreatment for 2 h; TI Concentration range: 0.1 μg/ml-100 μg/ml (duplicate wells); TNF-α stimulation: 20 ng/ml; LPS+PMA stimulation: 10 μg/ml LPS+40 ng/ml PMA; Time point for supernatants collection: 24 h; Method of estimation: ELISA; Positive control: Dexamethasone

[3] = test system: HaCaT (Human keratinocyte) cell line; experiment: Mitochondrial membrane potential by JC-1 assay; type: cell-based; conditions: 20 h
Description: For testing Apoptosis the Human Keratinocytes (HaCaT) cell line has been employed. The growth conditions are DMEM containing 1% FBS. […] Test concentration range is IS181 is tested at the highest (Qualitative analysis) effective concentrations selected on the basis of Quantitative JC-1 assay. The method of estimation is Mitochondrial membrane depolarization by JC-1 assay (Early apoptosis), LDH enzyme release (Necrosis). Treatment regimen & time points are JC-1 assay—Single addition, 20 h; LDH assay—Single addition, 24 h; Positive control: Triton-X-100, Doxorubicin-hydrochloride
Quantitative effect on Δψm (Red fluorescence/Green fluorescence) in HaCaT cells post 20 hours of treatment. […] Evaluation (Qualitative and quantitative) of differential JC-1 staining in treated cells after 20 h on incubation with the test peptides.

[4] = test system: Imiquimod (IMQ) induced psoriasis; experiment: Imiquimod (IMQ) induced psoriasis model; type: in vivo, BALB/C mice

Question: Which cytotoxicity at 72 h, 10 μg/ml ([1]; IS 181 10 μg/ml alone) does the source give for “H-WVQRVVEKFLK-OH [IS181, H-Trp-Val-Gln-Arg-Val-Val-Glu-Lys-Phe-Leu-Lys-OH]” here?
Answer: The cytotoxicity at 72 h, 10 μg/ml was -10.4%.

Question: What about the cytotoxicity at 72 h, 50 μg/ml ([1]; IS 181 50 μg/ml alone) of the same substance?
Answer: The cytotoxicity at 72 h, 50 μg/ml was -4.81%.

Question: What about the cytotoxicity at 72 h, 100 μg/ml ([1]; IS 181 100 μg/ml alone) of the same substance?
Answer: Its cytotoxicity at 72 h, 100 μg/ml is 8.16%.

Question: And the cytotoxicity at 72 h, 500 μg/ml ([1]; IS 181 500 μg/ml alone)?
Answer: The cytotoxicity at 72 h, 500 μg/ml was 39.4%.

Question: What about the cytotoxicity at 72 h, 1000 μg/ml ([1]; IS 181 1000 μg/ml alone) of the same substance?
Answer: The cytotoxicity at 72 h, 1000 μg/ml was 62.4%.

Question: What about the cytotoxicity at 72 h, 2000 μg/ml ([1]; IS 181 2000 μg/ml alone) of the same substance?
Answer: Its cytotoxicity at 72 h, 2000 μg/ml is 81.4%.

Question: What about the cytotoxicity at 72 h, 5000 μg/ml ([1]; IS 181 5000 μg/ml alone) of the same substance?
Answer: Its cytotoxicity at 72 h, 5000 μg/ml is 94.2%.

Question: What about the “IC50 value of IS 181” value ([2]; Anthralin 0 μM) of the same substance?
Answer: Its value is 695.50 µg/mL.

Question: What about the “IC50 value of IS 181” value ([2]; with Anthralin 0.01 μM) of the same substance?
Answer: Its value is 872.80 µg/mL.

Question: What about the “IC50 value of IS 181” value ([2]; with Anthralin 0.05 μM) of the same substance?
Answer: Its value is 908.50 µg/mL.

Question: And the “IC50 value of IS 181” value ([2]; with Anthralin 0.1 μM)?
Answer: Its value is 677.60 µg/mL.

Question: And the “TNF-α % decrease with respect to TNF-α” value (TNF-α; 0.1 μg/ml)?
Answer: Its value is −7.5%.

Question: What about the “TNF-α Conc” value (TNF-α; 0.1 μg/ml) of the same substance?
Answer: The value was 22731.8 pg/mL.

Question: What about the “TNF-α % decrease with respect to TNF-α” value (TNF-α; 1 μg/ml) of the same substance?
Answer: The value was 5.8%.

Question: And the “TNF-α Conc” value (TNF-α; 1 μg/ml)?
Answer: Its value is 19924.1 pg/mL.

Question: And the “TNF-α % decrease with respect to TNF-α” value (TNF-α; 5 μg/ml)?
Answer: The value was −8.1%.

Question: And the “TNF-α Conc” value (TNF-α; 5 μg/ml)?
Answer: The value was 22852.1 pg/mL.

Question: And the “TNF-α % decrease with respect to TNF-α” value (TNF-α; 10 μg/ml)?
Answer: The value was −15.7%.

Question: What about the “TNF-α Conc” value (TNF-α; 10 μg/ml) of the same substance?
Answer: Its value is 24469.9 pg/mL.

Question: What about the “TNF-α % decrease with respect to TNF-α” value (TNF-α; 100 μg/ml) of the same substance?
Answer: The value was −18.8%.

Question: What about the “TNF-α Conc” value (TNF-α; 100 μg/ml) of the same substance?
Answer: Its value is 25125.0 pg/mL.

Question: And the “Green fluorescence intensity (RFU)” value ([3]; 400 μg/ml)?
Answer: The value was 13.67 ± 1.89 RFU.

Question: And the “Red fluorescence intensity (RFU)” value ([3]; 400 μg/ml)?
Answer: Its value is 134.33 ± 32.06 RFU.

Question: What about the “Red fluorescence intensity/Green fluorescence intensity” value ([3]; 400 μg/ml) of the same substance?
Answer: Its value is 9.83.

Question: And the “Green fluorescence intensity (RFU)” value ([3]; 475 μg/ml)?
Answer: Its value is 14.83 ± 3.54 RFU.

Question: And the “Red fluorescence intensity (RFU)” value ([3]; 475 μg/ml)?
Answer: The value was 150.67 ± 11.31 RFU.

Question: What about the “Red fluorescence intensity/Green fluorescence intensity” value ([3]; 475 μg/ml) of the same substance?
Answer: The value was 10.16.

Question: And the “Green fluorescence intensity (RFU)” value ([3]; 500 μg/ml)?
Answer: The value was 14.5 ± 2.12 RFU.

Question: What about the “Red fluorescence intensity (RFU)” value ([3]; 500 μg/ml) of the same substance?
Answer: The value was 152.83 ± 31.82 RFU.

Question: What about the “Red fluorescence intensity/Green fluorescence intensity” value ([3]; 500 μg/ml) of the same substance?
Answer: The value was 10.54.

Question: What about the “Green fluorescence intensity (RFU)” value ([3]; 750 μg/ml) of the same substance?
Answer: The value was 17.67 ± 4.24 RFU.

Question: And the “Red fluorescence intensity (RFU)” value ([3]; 750 μg/ml)?
Answer: Its value is 126.17 ± 6.36 RFU.

Question: What about the “Red fluorescence intensity/Green fluorescence intensity” value ([3]; 750 μg/ml) of the same substance?
Answer: The value was 7.14.

Question: And the “decrease in mitochondrial membrane potential (R/G ratio) as compared to untreated cells” value ([3]; 750 μg/ml to 2 mg/ml)?
Answer: The value was 34% to 88.6%.

Question: And the “Green fluorescence intensity (RFU)” value ([3]; 1000 μg/ml)?
Answer: Its value is “^#25.83 ± 5.42^ RFU”.

Question: And the “Red fluorescence intensity (RFU)” value ([3]; 1000 μg/ml)?
Answer: The value was “^#102.25 ± 4.60 ^ RFU”.

Question: What about the “Red fluorescence intensity/Green fluorescence intensity” value ([3]; 1000 μg/ml) of the same substance?
Answer: The value was 3.96.

Question: What about the “Green fluorescence intensity (RFU)” value ([3]; 2000 μg/ml) of the same substance?
Answer: The value was “#41.25 ± 15.20 RFU”.

Question: What about the “Red fluorescence intensity (RFU)” value ([3]; 2000 μg/ml) of the same substance?
Answer: Its value is “^#50.58 ± 0.12^ RFU”.

Question: What about the “Red fluorescence intensity/Green fluorescence intensity” value ([3]; 2000 μg/ml) of the same substance?
Answer: The value was “**1.23”.

Question: And the “ear thickness (life phase)” value ([4]; 1.2 mg/kg i.m. and i.p)?
Answer: Its value is “mild reduction in ear thickness”.

Question: And the spleen weight ([4]; i.p)?
Answer: The spleen weight was “mild reduction in spleen weight”.
